The record followed here is ChEMBL document CHEMBL3286248, “Easily accessible polycyclic amines that inhibit the wild-type and amantadine-resistant mutants of the M2 channel of influenza A virus” (J Med Chem, 2014).

In one data set the test system is MDCK. The class given is cell-based, Canis lupus familiaris. Particulars: dog, 72 h.
For data set [1], the target named is Matrix protein 2 (Influenza A virus (A/Udorn/307/1972(H3N2))) (UniProt P0DOF8). The class given is cell membranes. Particulars: Influenza A virus (A/udorn/1972(H3N2)).
Sequence of Matrix protein 2 (Influenza A virus (A/Udorn/307/1972(H3N2))) (P0DOF8 whole entry): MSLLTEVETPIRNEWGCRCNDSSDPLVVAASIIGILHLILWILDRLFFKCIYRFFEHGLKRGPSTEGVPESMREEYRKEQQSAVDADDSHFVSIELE
The test system of the next data set is Influenza B virus. The data set is described as follows: Antiviral activity against Influenza B virus (B/HK/5/72) infected in MDCK cells. The class given is functional, cell-based. Particulars: B/Hong Kong/05/1972.
Data set [2] is described as follows: Cytotoxicity against MDCK cells assessed as alteration in cell morphology after 72 hrs. Conditions: dog. The class given is cell-based, Canis lupus familiaris.
The target in data set [3] is Matrix protein 2 (Influenza A virus (A/Udorn/307/1972(H3N2)), UniProt P0DOF8). The class given is cell membranes, Influenza A virus (A/udorn/1972(H3N2)).
Sequence of Matrix protein 2 (Influenza A virus (A/Udorn/307/1972(H3N2)), UniProt P0DOF8) (P0DOF8 whole entry): as above

Where a name gives a salt, the structure may show the parent alone. Calls of active or inactive are those of the source. No cut-off for these calls is given here. A value given as a limit tells only on which side of the number the result lay.

Broadly, the CC50 is the concentration that lowers cell viability or growth by half. A lower CC50 goes with harm at low concentration. Molecule `C1=CC2C3CC3C1C1CN(C3CCNCC3)CC21` (stereo not given) showed a CC50 in the data set on MDCK of 46 µM. For the same molecule, the inhibition entry in data set [1] is “inactive”. In addition, the outcome in the data set with Influenza B virus was inactive. In addition, in data set [2], the MCC at 72 h came to 100 µM.
The term IC50 denotes the concentration that gives 50% inhibition. Lower therefore signals higher potency. On to `C1CC2C1C1CCC2C2CNCC12` (stereo not given), for which the CC50 in the data set on MDCK was 1.9 µM. The same molecule registered an IC50 in data set [3] of 1240 nM. Besides, the outcome in the data set with Influenza B virus was inactive. In addition, the MCC at 72 h in data set [2] was found to be 4 µM.
As to `C1CC2C3CNCC3C1C1CC21` (stereo not given), the CC50 in the data set on MDCK amounted to 49 µM. In data set [3], this molecule registered an IC50 of 3380 nM. Moreover, the result with Influenza B virus was inactive. Also, the MCC at 72 h in data set [2] is 100 µM.
The like results for `C1=CC2C3CNCC3C1C1CC21` (stereo not given) were, in that order, 54 µM, 2920 nM, “inactive” and 100 µM.
On to `CC12CC34CNCC35CC1(C)C(C)(C5)C2(C)C4` (stereo not given), for which, in the data set with MDCK, the CC50 was 49 µM. Besides, in the data set with Influenza B virus, the outcome was inactive. The MCC at 72 h in data set [2] was determined as 100 µM.
`C1=CC2C1C1C=CC2C2CNCC12` (stereo not given) registered a CC50 in the data set with MDCK of 4.9 µM. The molecule also yielded a half-inhibitory concentration (IC50) in data set [3] of 5540 nM. Moreover, in the data set on Influenza B virus, the result was inactive. For the same molecule, in data set [2], the MCC at 72 h was found to be 15 µM.
Consider `N=C(N)N1CC2C3CCC(C4CC34)C2C1` (stereo not given), for which, in the data set on MDCK, half-maximal cytotoxicity (CC50) was put at 41 µM. Further, in data set [3], the 50% inhibitory concentration (IC50) was 1640 nM. Further, in the data set with Influenza B virus, the result was inactive. The MCC at 72 h in data set [2] amounted to 100 µM.
Molecule `NC12CC3CC(CC(C3)C1)C2` [AMANTADINE] returned a CC50 in the data set with MDCK above 500 µM. Also, the outcome in the data set with Influenza B virus was inactive. The MCC at 72 h in data set [2] is at least 500 µM.
The like results for `N=C(N)N1CC2C3CCC(C4CCC43)C2C1` (stereo not given) were, in that order, 1.9 µM, “inactive” and 4 µM.
In the data set on MDCK, `CC12CC34CN(C(=N)N)CC35CC1(C)C(C)(C5)C2(C)C4` (stereo not given) displayed a CC50 of 15 µM. The result in the data set with Influenza B virus was inactive. Also, the MCC at 72 h in data set [2] is at least 4 µM.
As for `N=C(N)N1CC2C3C=CC(C4CC34)C2C1` (stereo not given), in the data set on MDCK, the CC50 stood at 39 µM. In data set [3], this molecule had an IC50 of 1500 nM. In the data set on Influenza B virus, the result was inactive. The MCC at 72 h in data set [2] stood at 100 µM.
Molecule `C1CC(N2CC3C4CCC(C5CC45)C3C2)CCN1` (stereo not given) registered a half-maximal cytotoxic concentration (CC50) with MDCK of 9 µM. Further, the inhibition entry in data set [1] is “inactive”. For the same molecule, the outcome in the data set on Influenza B virus was inactive. Besides, in data set [2], the MCC at 72 h is 20 µM.
In the data set on MDCK, `CC(N)C12CC3CC(CC(C3)C1)C2` (stereo not given) [RIMANTADINE HYDROCHLORIDE] had a CC50 of 230 µM. In the data set on Influenza B virus, the outcome was inactive.
Turning to `N=C(N)N1CC2C3C=CC(C4C=CC43)C2C1` (stereo not given), half-maximal cytotoxicity in the data set with MDCK (CC50) was put at 9.4 µM. This molecule came in with a 50% inhibitory concentration (IC50) in data set [3] of 4930 nM. Also, the outcome with Influenza B virus was inactive. Also, in data set [2], the MCC at 72 h came out at 20 µM.
